According to PubChem BioAssay AID624000 (Vanderbilt Specialized Chemistry Center, 2012):

Biological target: Phospholipase D2 (Homo sapiens) + Phospholipase D2 (Homo sapiens) (UniProt O14939+O14939)
Assay: purified PLD2 enzyme inhibitors, dose response, biochemical, assay 3B, library 32 (AID 624000)
Conditions: purified PLD2 enzyme activity

Phospholipase D2 (Homo sapiens) + Phospholipase D2 (Homo sapiens), sequence (O14939 whole entry, looked up): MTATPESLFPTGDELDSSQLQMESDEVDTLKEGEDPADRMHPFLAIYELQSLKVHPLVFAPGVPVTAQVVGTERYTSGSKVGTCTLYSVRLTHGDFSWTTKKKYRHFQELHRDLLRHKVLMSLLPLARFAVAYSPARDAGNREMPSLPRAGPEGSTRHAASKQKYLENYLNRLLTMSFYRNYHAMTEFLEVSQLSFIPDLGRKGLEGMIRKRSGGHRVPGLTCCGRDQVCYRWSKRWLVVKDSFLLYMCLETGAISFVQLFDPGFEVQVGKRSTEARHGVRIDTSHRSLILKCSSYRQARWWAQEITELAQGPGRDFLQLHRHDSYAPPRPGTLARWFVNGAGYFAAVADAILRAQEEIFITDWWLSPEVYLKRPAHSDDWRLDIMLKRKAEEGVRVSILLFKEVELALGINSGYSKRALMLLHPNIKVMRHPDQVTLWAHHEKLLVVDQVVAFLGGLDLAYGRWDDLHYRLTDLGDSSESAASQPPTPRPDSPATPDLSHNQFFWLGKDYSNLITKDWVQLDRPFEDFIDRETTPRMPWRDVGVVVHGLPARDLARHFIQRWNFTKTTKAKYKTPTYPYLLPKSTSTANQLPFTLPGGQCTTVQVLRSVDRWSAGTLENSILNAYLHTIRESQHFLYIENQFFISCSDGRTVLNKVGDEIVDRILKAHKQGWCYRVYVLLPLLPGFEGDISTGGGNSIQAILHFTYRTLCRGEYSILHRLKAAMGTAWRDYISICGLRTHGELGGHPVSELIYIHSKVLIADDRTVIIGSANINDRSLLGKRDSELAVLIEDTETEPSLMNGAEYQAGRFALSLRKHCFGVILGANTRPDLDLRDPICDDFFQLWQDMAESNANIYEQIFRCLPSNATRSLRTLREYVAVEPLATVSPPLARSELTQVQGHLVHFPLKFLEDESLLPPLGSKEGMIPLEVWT
Phospholipase D2 (Homo sapiens) + Phospholipase D2 (Homo sapiens), sequence (O14939 whole entry, looked up): as above

C[C@@H](CN1CCC2(CC1)C(=O)NCN2c1cccc(F)c1)NC(=O)c1ccc(Br)cc1
IC50: 84 nM

COc1cc(C(=O)NCCN2CCC3(CC2)C(=O)NCN3c2cccc(F)c2)cc(OC)c1OC
IC50: 1430 nM
